29 compounds from US8188070B2, “Method of treating neurological diseases and disorders” (The Trustees of the University of Pennsylvania, priority 2002, dated 2012) can be followed below.

Some results are limits rather than exact numbers.

For data set [1], the system named is S5 cells. Description: High throughput screen: ATP level (viable cells) in S5 cells with reduced SMN. It counts as cell-based, chicken. As to conditions: for EC50 / Emax: Gallus gallus, S5 cells, 18 ng/ml tet, 0.5 to 20 μM; for EC50: ATP level, read-out: EC50 (effective concentration for half maximum activity); for Emax: percentage increase of ATP level relative to cells treated with DMSO only, read-out: Maximum Activity (%). How it is done: In the SMN conditional knockout cell line, S5, the endogenous smn gene is disrupted by homologous recombination, and the SMN protein is stably expressed from an SMN cDNA under the control of a tetracycline (tet)-repressible promoter (Wang and Dreyfuss (2001) supra).
Libraries of compounds were screened against the S5 cell line. […] The cells were incubated for an additional 72 hours and the number of viable cells in each well was determined by measuring the ATP level in the cell lysate, a sensitive assay commonly used to assess cell viability in HTS (Crouch, et al. (1993) J. Immunol. Methods 160:81-88). […] Activity of the compounds was measured as the difference between the sample and the average of the controls.
(§1) The activities of all compounds were further examined at concentrations ranging from 0.5 to 20 μM. […] The activity of each compound was determined as a percentage increase of the ATP level, reflecting the number of viable cells, relative to cells treated with an equal volume of DMSO only.
The chicken pre-B cell line DT40, the smn conditional knockout cell line S5 and the asf/sf2 conditional knockout cell line ASF-DT40 (Wang, et al. (1996) supra) were maintained using known methods (Wang and Dreyfuss (2001) supra). To reduce the SMN level, S5 cells were incubated with 18 ng/ml tetracycline hydrochloride (tet). Similarly, ASF-DT40 cells were treated with 14 ng/ml tet to partially deplete the ASF/SF2 protein.
After being incubated in medium containing 18 ng/ml tet for 24 hours, S5 cells were dispensed into 96-well plates at 120 μl per well. Compounds were added to these cells by pipetting 0.4 μl of the 3 mM libraries into each well to reach a final concentration of 10 μM. The 96-well plates were further incubated for 72 hours at 37° C. with 5% CO2. […] Luminescence was read on a Wallac Victor2 multi-channel plate reader (Perkin-Elmer, Boston, Mass.). The cellular ATP level is a direct measure of the number of viable cells in each well (Crouch, et al. (1993) supra). Data from luminescence readings were analyzed with MICROSOFT® Excel.

The subject of data set [2] is S5 cells. The following applies: for highest concentration at which there is no apparent cell toxicity: S5 cells. How it is done:
as §1
SMN protein levels were also determined. Total cell lysates from treated cells were prepared and analyzed by immunoblotting with an anti-SMN antibody. […] The same blots were probed with antibodies against two other abundant proteins, Y14^10 and β-tubulin, to provide an internal control for the amount of cell lysate loaded on the gel.

In data set [3] the test system is S5 cells. Description: Cell number determination in S5 cells cultured with 18 ng/ml tet. The following applies: after 96 hours. The data set is classed as cell-based, chicken. How it is done:
To determine an accurate measure of the number of viable cells, cell numbers were also determined.

Where [4] appears, read: high-throughput screening system.

On to `Clc1ccc(C(c2ccc(Cl)cc2)n2cc[n+](CC(OCc3ccc(Cl)cc3Cl)c3ccc(Cl)cc3Cl)c2)cc1` (centres unmarked) [Calmidazolium, reference compound], for which, in the data set on S5 cells [1] (setting [4]), the “concentration improving growth of S5 cells (as low as)” value is 215 nM and the “growth of S5 cells” value is listed as “improved the growth of S5 cells”. Take `CN(C)CCC=C1c2ccccc2CCc2ccccc21` [Compound 1]: in the data set on S5 cells [1], the EC50 was 3000 nM and the Emax was 30%. In the same order, the values of `CNCCCN1c2ccccc2CCc2ccccc21` [Compound 2] are 3000 nM and 30%. In the same order, the values of `CN(C)CC/C=C1/c2ccccc2COc2ccccc21` [Compound 3] are 5000 nM and 60%. In the same order, the values of `CN(C)CCCN1c2ccccc2CCc2ccccc21` [Compound 4] are 4000 nM and 35%.

As to `CN1CCN2c3ccccc3Cc3ccccc3C2C1` (centres unmarked) [Compound 5], in the data set with S5 cells [1], the EC50 is 5000 nM and the Emax worked out at 75%. The cell toxicity result with S5 cells [2] is reported as “low cell toxicity”. With `CC(CN(C)C)CN1c2ccccc2CCc2ccccc21` (centres unmarked) [Compound 6], in the data set with S5 cells [1], the EC50 came to 2500 nM and the Emax stood at 50%. For `CN(C)CCC=C1c2ccccc2C=Cc2ccccc21` [Compound 7] the same measures were 3000 nM and 45%. Take `CSc1ccc2c(c1)C(N1CCN(C)CC1)Cc1ccccc1S2` (centres unmarked) [Compound 8]: in the data set with S5 cells [1], the EC50 is less than 1000 nM and the Emax was 25%. As to `CN(C)CCCN1c2ccccc2CCc2ccc(Cl)cc21` [Compound 9], in the data set on S5 cells [1], the EC50 turned out to be 1500 nM and the Emax was 50%. In the same order, the values of `CN1CCN(C2=Nc3cc(Cl)ccc3Nc3ccccc32)CC1` [Compound 10] are 3000 nM and 30%. With `CN(C)CCCN1c2ccccc2Sc2ccccc21` [Compound 11], in the data set with S5 cells [1], the EC50 amounted to 2500 nM and the Emax is 60%. For `CC(CN1c2ccccc2Sc2ccccc21)N(C)C` (centres unmarked) [Compound 12], in the data set on S5 cells [1], the EC50 was found to be 2500 nM and the Emax was 75%. Further, in the data set with S5 cells [3], the “increase in cell number over control cells treated with DMSO alone” value is listed as “three to four-fold increase in cell number”. For `CC(CN(C)C)CN1c2ccccc2Sc2ccccc21` (centres unmarked) [Compound 14], in the data set with S5 cells [1], the EC50 turned out to be 2500 nM and the Emax was found to be 40%. In the same order, the values of `CCN(CC)C(C)CN1c2ccccc2Sc2ccccc21` (centres unmarked) [Compound 15] are 2000 nM and 70%.

Turning to `CCC(=O)c1ccc2c(c1)N(CC(C)N(C)C)c1ccccc1S2` (centres unmarked) [Compound 16], in the data set on S5 cells [1], the EC50 is 1000 nM and the Emax is 60%. Also, the “highest concentration at which there is no apparent cell toxicity” value in the data set with S5 cells [2] is 4 µM. As for `CSc1ccc2c(c1)N(CCC1CCCCN1C)c1ccccc1S2` (centres unmarked) [Compound 17], in the data set on S5 cells [1], the EC50 amounted to 1500 nM and the Emax is 80%. Besides, the “highest concentration at which there is no apparent cell toxicity” value with S5 cells [2] was 4 µM. Further, the “increase in cell number over control cells treated with DMSO alone” value in the data set with S5 cells [3] is reported as “three to four-fold increase in cell number”. In the case of `CN(C)CCCN1c2ccccc2Sc2ccc(C(F)(F)F)cc21` [Compound 18], in the data set with S5 cells [1], the EC50 came out at 1500 nM and the Emax was found to be 25%. Turning to `CN(C)CC/C=C1\c2ccccc2Sc2ccc(Cl)cc21` [Compound 19], in the data set with S5 cells [1], the EC50 came to 2000 nM and the Emax was 30%. On to `CN(C)CCCN1c2ccccc2Sc2ccc(Cl)cc21` [Compound 20], for which, in the data set on S5 cells [1], the EC50 was 1000 nM and the Emax stood at 35%. The “highest concentration at which there is no apparent cell toxicity” value in the data set with S5 cells [2] turned out to be 4 µM. With `CN1CCC(OC(c2ccccc2)c2ccccc2)CC1` [Compound 21], in the data set on S5 cells [1], the Emax was 55%.

With `O=C(CCCN1CC=C(n2c(=O)[nH]c3ccccc32)CC1)c1ccc(F)cc1` [Compound 22], the Emax with S5 cells [1] came out at 50%. On the same count and under the same terms, for `CCN1CCCC(OC(=O)C(c2ccccc2)c2ccccc2)C1` (centres unmarked) [Compound 23] the value was 50%. Still for that read-out and setting: for `CN1Cc2c(N)cccc2C(c2ccccc2)C1` (centres unmarked) [Compound 24] the value was 35%. On to `COC(=O)[C@H](c1ccccc1Cl)N1CCc2sccc2C1` [Compound 25], for which, in the data set on S5 cells [1], the EC50 amounted to 7000 nM and the Emax worked out at 100%.

Turning to `Cc1nc2sccn2c(=O)c1CCN1CCC(=C(c2ccc(F)cc2)c2ccc(F)cc2)CC1` [Compound 27], the Emax in the data set on S5 cells [1] was found to be 80%. Still for that read-out and setting: for `O=C(CCCN1CCC2(CC1)C(=O)NCN2c1ccccc1)c1ccc(F)cc1` [Compound 29] the value was 140%.

In the case of `COc1ccc(S(=O)(=O)Nc2ccccc2CN(C)CC=Cc2ccc(Cl)cc2)cc1` [KN-92, 2-[N-(4-Methoxybenzenesulfonyl)] amino-N-(4-chlorocinnamyl)-N-methylbenzylamine, reference compound], the “growth of S5 cells” value in the data set on S5 cells [1] (setting [4]) was “did not affect the growth of S5 cells”. On the same count and under the same terms, the same measure for `COc1ccc(S(=O)(=O)N(CCO)c2ccccc2CN(C)CC=Cc2ccc(Cl)cc2)cc1` [KN-93, reference compound]: “improved the growth of S5 cells”.
